Assay results from PubChem BioAssay AID2060891 (Molecular Pharmacology Branch, DTP, NCI, 2025).

Tested on: K98450-129-R-PDC complex spheroid growth, percent test/control
Test: Anticancer human tumor K98450-129-R-PDC patient-derived colon adenocarcinoma cell line growth inhibition [RAS]
Conditions: for IC50: curve of first compound; for viability, T/C: stronger effect = lower value; active = viability on the fitted dose curve at most 10% of control; inactive = the rest
Method in brief: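 Agents were tested in combination matrices in half-log decrements from a top concentration at or near clinical Cmax (10 microM if undetermined). Targets were multi-cell spheroids of tumour lines plus HUVEC and MSC stromal cells.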

[1] = second compound 0.0316 µM, first compound 0.0316 µM
[2] = second compound 0.0316 µM, first compound 0.1 µM
[3] = second compound 0.0316 µM, first compound 0.316 µM
[4] = second compound 0.0316 µM, first compound 1 µM
[5] = second compound 0.0316 µM, first compound 3.16 µM
[6] = second compound 0.0316 µM, first compound 10 µM
[7] = second compound 0.1 µM, first compound 0.0316 µM
[8] = second compound 0.1 µM, first compound 0.1 µM
[9] = second compound 0.1 µM, first compound 0.316 µM
[10] = second compound 0.1 µM, first compound 1 µM
[11] = second compound 0.1 µM, first compound 3.16 µM
[12] = second compound 0.1 µM, first compound 10 µM
[13] = second compound 0.316 µM, first compound 0.0316 µM
[14] = second compound 0.316 µM, first compound 0.1 µM
[15] = second compound 0.316 µM, first compound 0.316 µM
[16] = second compound 0.316 µM, first compound 1 µM
[17] = second compound 0.316 µM, first compound 3.16 µM
[18] = second compound 0.316 µM, first compound 10 µM
[19] = second compound 1 µM, first compound 0.0316 µM
[20] = second compound 1 µM, first compound 0.1 µM
[21] = second compound 1 µM, first compound 0.316 µM
[22] = second compound 1 µM, first compound 1 µM
[23] = second compound 1 µM, first compound 3.16 µM
[24] = second compound 1 µM, first compound 10 µM
[25] = second compound 3.16 µM, first compound 0.0316 µM
[26] = second compound 3.16 µM, first compound 0.1 µM
[27] = second compound 3.16 µM, first compound 0.316 µM
[28] = second compound 3.16 µM, first compound 1 µM
[29] = second compound 3.16 µM, first compound 3.16 µM
[30] = second compound 3.16 µM, first compound 10 µM
[31] = second compound 10 µM, first compound 0.0316 µM
[32] = second compound 10 µM, first compound 0.1 µM
[33] = second compound 10 µM, first compound 0.316 µM
[34] = second compound 10 µM, first compound 1 µM
[35] = second compound 10 µM, first compound 3.16 µM
[36] = second compound 10 µM, first compound 10 µM
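Note: spheroids exposed to agents for seven days before the viability readout.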
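Throughout, for viability, T/C: luminescence used as a proxy for viable cell amount.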

CC(=O)OC12COC1CC(O)C1(C)C(=O)C(O)C3=C(C)C(OC(=O)C(O)C(NC(=O)OC(C)(C)C)c4ccccc4)CC(O)(C(OC(=O)c4ccccc4)C21)C3(C)C (stereo unspecified) + C#Cc1c(F)ccc2cc(O)cc(-c3ncc4c(N5CC6CCC(C5)N6)nc(OCC56CCCN5CC(F)C6)nc4c3F)c12
415 nM: IC50 (second compound 0.0316 µM)
428 nM: IC50 (second compound 0.1 µM)
inactive: viability, T/C [1] 105% | viability, T/C [2] 98% | viability, T/C [3] 54.7% | viability, T/C [4] 34.7% | viability, T/C [5] 33.1% | viability, T/C [6] 35.2% | viability, T/C [7] 109% | viability, T/C [8] 103% | viability, T/C [9] 54.7% | viability, T/C [10] 38% | viability, T/C [11] 32.8% | viability, T/C [12] 34.8% | viability, T/C [13] 105% | viability, T/C [14] 103% | viability, T/C [15] 59% | viability, T/C [16] 35.5% | viability, T/C [17] 32.4% | viability, T/C [18] 33.4% | viability, T/C [19] 101% | viability, T/C [20] 101% | viability, T/C [21] 57.9% | viability, T/C [22] 36.6% | viability, T/C [23] 32.6% | viability, T/C [24] 32.1% | viability, T/C [25] 93.2% | viability, T/C [26] 97.1% | viability, T/C [27] 57.9% | viability, T/C [28] 35% | viability, T/C [29] 34.2% | viability, T/C [30] 31.9% | viability, T/C [31] 86.1% | viability, T/C [32] 87.8% | viability, T/C [33] 55% | viability, T/C [34] 31.9% | viability, T/C [35] 30.6% | viability, T/C [36] 29%
460 nM: IC50 (second compound 3.16 µM)
482 nM: IC50 (second compound 0.316 µM)
401 nM: IC50 (second compound 10 µM)
466 nM: IC50 (second compound 1 µM)

NC1c2ccccc2OC12CCN(c1cnc3c(N4CCCc5ncccc54)n[nH]c3n1)CC2 (stereo unspecified) + C#Cc1c(F)ccc2cc(O)cc(-c3ncc4c(N5CC6CCC(C5)N6)nc(OCC56CCCN5CC(F)C6)nc4c3F)c12
active: viability, T/C [11] 9.92% | viability, T/C [12] 6.11% | viability, T/C [16] 10.3% | viability, T/C [17] 8.37% | viability, T/C [18] 6.2% | viability, T/C [22] 8.69% | viability, T/C [23] 6.98% | viability, T/C [24] 6.07% | viability, T/C [28] 7.66% | viability, T/C [29] 5.66% | viability, T/C [30] 4.62% | viability, T/C [33] 7.94% | viability, T/C [34] 6.21% | viability, T/C [35] 4.84% | viability, T/C [36] 2.23%
141 nM: IC50 (second compound 1 µM)
165 nM: IC50 (second compound 0.316 µM)
195 nM: IC50 (second compound 0.0316 µM)
189 nM: IC50 (second compound 0.1 µM)
48 nM: IC50 (second compound 10 µM)
inactive: viability, T/C [1] 92.2% | viability, T/C [2] 73.8% | viability, T/C [3] 32.1% | viability, T/C [4] 17.4% | viability, T/C [5] 11.8% | viability, T/C [6] 9.37% | viability, T/C [7] 97.8% | viability, T/C [8] 72.7% | viability, T/C [9] 31.3% | viability, T/C [10] 14% | viability, T/C [13] 96.6% | viability, T/C [14] 70.2% | viability, T/C [15] 23.4% | viability, T/C [19] 91.2% | viability, T/C [20] 65.2% | viability, T/C [21] 14.2% | viability, T/C [25] 78.2% | viability, T/C [26] 41.1% | viability, T/C [27] 10.8% | viability, T/C [31] 63.9% | viability, T/C [32] 25.6%
75.8 nM: IC50 (second compound 3.16 µM)

Nc1ccn(C2OC(CO)C(O)C2(F)F)c(=O)n1 (stereo unspecified) + C#Cc1c(F)ccc2cc(O)cc(-c3ncc4c(N5CC6CCC(C5)N6)nc(OCC56CCCN5CC(F)C6)nc4c3F)c12
72.2 nM: IC50 (second compound 0.0316 µM)
83.8 nM: IC50 (second compound 0.316 µM)
74.2 nM: IC50 (second compound 1 µM)
87.7 nM: IC50 (second compound 0.1 µM)
87.5 nM: IC50 (second compound 10 µM)
inactive: viability, T/C (second compound 0.0316 µM, first compound 0.00316 µM) 109% | viability, T/C (second compound 0.0316 µM, first compound 0.01 µM) 99.1% | viability, T/C [1] 65.4% | viability, T/C [2] 44.8% | viability, T/C [3] 35.6% | viability, T/C [4] 29.6% | viability, T/C (second compound 0.1 µM, first compound 0.00316 µM) 115% | viability, T/C (second compound 0.1 µM, first compound 0.01 µM) 106% | viability, T/C [7] 73.5% | viability, T/C [8] 47% | viability, T/C [9] 37.8% | viability, T/C [10] 29.7% | viability, T/C (second compound 0.316 µM, first compound 0.00316 µM) 107% | viability, T/C (second compound 0.316 µM, first compound 0.01 µM) 96.3% | viability, T/C [13] 75.4% | viability, T/C [14] 44.4% | viability, T/C [15] 33.9% | viability, T/C [16] 30.5% | viability, T/C (second compound 1 µM, first compound 0.00316 µM) 101% | viability, T/C (second compound 1 µM, first compound 0.01 µM) 94.7% | viability, T/C [19] 68.1% | viability, T/C [20] 43.3% | viability, T/C [21] 38% | viability, T/C [22] 31.9% | viability, T/C (second compound 3.16 µM, first compound 0.00316 µM) 95.7% | viability, T/C (second compound 3.16 µM, first compound 0.01 µM) 90% | viability, T/C [25] 70.2% | viability, T/C [26] 46.9% | viability, T/C [27] 39.5% | viability, T/C [28] 31.1% | viability, T/C (second compound 10 µM, first compound 0.00316 µM) 92.5% | viability, T/C (second compound 10 µM, first compound 0.01 µM) 87.9% | viability, T/C [31] 71.6% | viability, T/C [32] 46.6% | viability, T/C [33] 37.2% | viability, T/C [34] 32.4%
90.5 nM: IC50 (second compound 3.16 µM)
